How the values were obtained:
[1] = DRUGMATRIX: Sodium/nucleoside co-transporter radioligand binding (ligand: nitrobenzylthioinosine); type: cell membranes, Cavia porcellus, Dunkin-Hartley, Cerebral cortex, Membrane; settings: Not Active = under 50% inhibition at 10 µM
[2] = DRUGMATRIX: beta-Lactamase enzyme inhibition (substrate: Nitrocefin); parameters: species or system Bacillus cereus; settings: Not Active = under 50% inhibition at 10 µM
[3] = target: T1, C-X-C chemokine receptor type 2 (Homo sapiens, UniProt P25025); type: cell membranes, Membrane; settings: cho-k1; also: in other assays of this panel Not Active means under 50% inhibition at 10 µM
T1 sequence (P25025 whole entry): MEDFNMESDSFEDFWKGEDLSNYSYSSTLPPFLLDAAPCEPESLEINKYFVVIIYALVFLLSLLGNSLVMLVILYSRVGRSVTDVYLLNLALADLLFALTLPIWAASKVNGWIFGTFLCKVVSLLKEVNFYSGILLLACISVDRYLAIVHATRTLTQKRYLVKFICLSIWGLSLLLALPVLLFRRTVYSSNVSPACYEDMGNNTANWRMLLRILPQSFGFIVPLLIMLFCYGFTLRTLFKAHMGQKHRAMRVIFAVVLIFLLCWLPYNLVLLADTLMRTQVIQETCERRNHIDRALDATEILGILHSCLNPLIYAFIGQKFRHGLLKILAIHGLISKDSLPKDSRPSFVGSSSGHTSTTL

D(4) dopamine receptor = target: T2, D(4) dopamine receptor (Homo sapiens, UniProt P21917); assay: DRUGMATRIX: Dopamine D4.2 radioligand binding (ligand: [3H] Spiperone); type: cell membranes, CHO-K1, Membrane; settings: cho-k1; Not Active = under 50% inhibition at 10 µM
T2 sequence (P21917 whole entry): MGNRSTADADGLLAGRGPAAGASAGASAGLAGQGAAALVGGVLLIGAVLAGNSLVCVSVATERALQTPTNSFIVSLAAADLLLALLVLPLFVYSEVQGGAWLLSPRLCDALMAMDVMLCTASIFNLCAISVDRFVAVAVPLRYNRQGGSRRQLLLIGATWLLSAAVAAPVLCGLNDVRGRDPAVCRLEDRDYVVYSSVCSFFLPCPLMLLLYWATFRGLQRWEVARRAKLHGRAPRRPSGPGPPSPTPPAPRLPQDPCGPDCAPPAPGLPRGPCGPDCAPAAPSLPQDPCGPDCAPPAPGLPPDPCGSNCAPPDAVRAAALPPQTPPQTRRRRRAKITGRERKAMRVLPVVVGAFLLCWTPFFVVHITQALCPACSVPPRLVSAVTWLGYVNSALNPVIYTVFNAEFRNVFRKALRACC

[4] = DRUGMATRIX: GABAA, Muscimol, Central radioligand binding (ligand: [3H] Muscimol); type: cell membranes, Rattus norvegicus, Wistar, Brain, Membrane; settings: Not Active = under 50% inhibition at 10 µM
[5] = target: T3, Angiotensin-converting enzyme (Oryctolagus cuniculus, UniProt P12822); type: tissue-based, Lung;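 also: enzymatic inhibition of angiotensin-converting enzyme measured with FAPGG as the substrate; in other assays of this panel Not Active means under 50% inhibition at 10 µM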
T3 sequence (P12822 whole entry): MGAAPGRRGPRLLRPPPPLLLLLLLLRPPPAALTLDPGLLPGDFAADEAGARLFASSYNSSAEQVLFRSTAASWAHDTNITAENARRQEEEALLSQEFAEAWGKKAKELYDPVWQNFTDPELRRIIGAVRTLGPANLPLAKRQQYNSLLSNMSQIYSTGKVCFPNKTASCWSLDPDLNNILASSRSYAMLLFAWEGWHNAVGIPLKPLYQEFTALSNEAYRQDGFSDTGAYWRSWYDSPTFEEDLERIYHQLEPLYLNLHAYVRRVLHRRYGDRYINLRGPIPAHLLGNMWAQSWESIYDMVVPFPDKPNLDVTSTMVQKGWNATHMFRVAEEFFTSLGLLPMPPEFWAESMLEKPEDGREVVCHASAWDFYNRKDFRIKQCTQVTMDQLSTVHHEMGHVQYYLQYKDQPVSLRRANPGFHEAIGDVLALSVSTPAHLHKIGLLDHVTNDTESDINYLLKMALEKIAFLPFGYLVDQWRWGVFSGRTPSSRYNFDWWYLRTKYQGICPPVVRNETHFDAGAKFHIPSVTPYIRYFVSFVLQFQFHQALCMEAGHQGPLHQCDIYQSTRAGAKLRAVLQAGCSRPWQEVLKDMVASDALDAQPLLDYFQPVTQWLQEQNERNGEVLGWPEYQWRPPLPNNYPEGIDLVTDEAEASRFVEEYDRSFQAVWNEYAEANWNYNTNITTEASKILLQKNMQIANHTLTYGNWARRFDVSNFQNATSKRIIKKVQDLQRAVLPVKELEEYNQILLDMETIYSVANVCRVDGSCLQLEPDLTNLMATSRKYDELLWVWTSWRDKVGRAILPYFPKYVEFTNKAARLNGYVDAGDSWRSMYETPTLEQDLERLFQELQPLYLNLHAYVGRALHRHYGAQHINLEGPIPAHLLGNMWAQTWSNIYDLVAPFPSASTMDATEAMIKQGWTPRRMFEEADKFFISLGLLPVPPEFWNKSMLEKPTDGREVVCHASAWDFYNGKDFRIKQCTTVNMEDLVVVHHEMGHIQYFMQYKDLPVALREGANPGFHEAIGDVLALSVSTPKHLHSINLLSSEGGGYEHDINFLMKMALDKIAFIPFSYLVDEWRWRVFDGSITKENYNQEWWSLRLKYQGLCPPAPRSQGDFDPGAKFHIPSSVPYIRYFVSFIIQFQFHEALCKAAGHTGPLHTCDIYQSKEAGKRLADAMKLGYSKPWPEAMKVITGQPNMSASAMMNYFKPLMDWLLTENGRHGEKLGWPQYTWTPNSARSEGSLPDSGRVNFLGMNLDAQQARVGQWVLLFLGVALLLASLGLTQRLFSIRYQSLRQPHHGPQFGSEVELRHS

[6] = target: Protein phosphatase 3 catalytic subunit alpha (Homo sapiens, UniProt Q08209); parameters: species or system Escherichia coli;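 also: inhibition of calcineurin (PP2B) enzyme activity, measured with DiFMUP as the substrate; in other assays of this panel Not Active means under 50% inhibition at 10 µM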
Cytochrome P450 2C19 = Cytochrome P450 2C19 (Homo sapiens, UniProt P33261); settings: bti-tn-5b1-4; also: in other assays of this panel Not Active means under 50% inhibition at 10 µM
Chain of Cytochrome P450 2C19 (P33261 whole entry): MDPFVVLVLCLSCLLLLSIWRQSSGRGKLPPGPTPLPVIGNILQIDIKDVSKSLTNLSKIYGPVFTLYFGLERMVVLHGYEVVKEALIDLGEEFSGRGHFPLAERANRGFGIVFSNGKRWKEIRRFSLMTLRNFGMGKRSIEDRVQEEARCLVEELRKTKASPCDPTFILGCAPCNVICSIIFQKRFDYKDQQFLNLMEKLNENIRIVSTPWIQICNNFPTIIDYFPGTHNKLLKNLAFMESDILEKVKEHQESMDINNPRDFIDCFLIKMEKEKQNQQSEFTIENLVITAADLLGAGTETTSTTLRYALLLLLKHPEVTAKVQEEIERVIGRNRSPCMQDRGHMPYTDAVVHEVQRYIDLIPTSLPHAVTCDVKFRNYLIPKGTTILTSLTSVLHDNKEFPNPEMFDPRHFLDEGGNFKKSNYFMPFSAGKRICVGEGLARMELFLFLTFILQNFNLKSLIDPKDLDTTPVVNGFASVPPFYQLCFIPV

Nc1nc2c(ncn2COCCO)c(=O)[nH]1 [ACYCLOVIR]
Not Active: IC50 [1] | Ki [1] | IC50 [2] | Ki [2] | IC50 [3] | IC50 (D(4) dopamine receptor) | IC50 [4] | Ki [4] | IC50 [5] | IC50 [6] | IC50 (Cytochrome P450 2C19) | Ki (Cytochrome P450 2C19)

NCCCCCC(=O)O [AMINOCAPROIC ACID]
Not Active: IC50 [1] | Ki [1] | IC50 [2] | Ki [2] | IC50 [3] | IC50 (D(4) dopamine receptor) | IC50 [4] | Ki [4] | IC50 [5] | IC50 [6] | IC50 (Cytochrome P450 2C19) | Ki (Cytochrome P450 2C19)

CCC1(c2ccc(N)cc2)CCC(=O)NC1=O (stereo unspecified) [AMINOGLUTETHIMIDE]
Not Active: IC50 [1] | Ki [1] | IC50 [2] | Ki [2] | IC50 [3] | IC50 (D(4) dopamine receptor) | IC50 [4] | Ki [4] | IC50 [5] | Ki [6] | IC50 (Cytochrome P450 2C19) | Ki (Cytochrome P450 2C19)

Nc1ncn([C@@H]2O[C@H](CO)[C@@H](O)[C@H]2O)c(=O)n1 [AZACITIDINE]
Not Active: IC50 [1] | Ki [1] | IC50 [2] | Ki [2] | IC50 [3] | IC50 (D(4) dopamine receptor) | IC50 [4] | Ki [4] | IC50 [5] | IC50 [6]

CNCCc1ccccn1 [BETAHISTINE]
Not Active: IC50 [1] | Ki [1] | IC50 [2] | Ki [2] | IC50 [3] | IC50 (D(4) dopamine receptor) | IC50 [4] | Ki [4] | IC50 [5] | IC50 [6] | IC50 (Cytochrome P450 2C19) | Ki (Cytochrome P450 2C19)

Cc1ccc(-c2cc(C(F)(F)F)nn2-c2ccc(S(N)(=O)=O)cc2)cc1 [CELECOXIB]
Not Active: IC50 [1] | Ki [1] | IC50 [2] | Ki [2] | IC50 [3] | IC50 (D(4) dopamine receptor) | IC50 [4] | Ki [4] | IC50 [5] | IC50 [6] | IC50 (Cytochrome P450 2C19) | Ki (Cytochrome P450 2C19)

O=C(O)CCCc1ccc(N(CCCl)CCCl)cc1 [CHLORAMBUCIL]
Not Active: IC50 [1] | Ki [1] | IC50 [2] | Ki [2] | IC50 [3] | IC50 (D(4) dopamine receptor) | IC50 [4] | Ki [4] | IC50 [5] | IC50 [6] | IC50 (Cytochrome P450 2C19) | Ki (Cytochrome P450 2C19)

C[C@H](CCC(=O)O)[C@H]1CC[C@H]2[C@@H]3[C@H](O)C[C@@H]4C[C@H](O)CC[C@]4(C)[C@H]3C[C@H](O)[C@]12C [CHOLIC ACID]
Not Active: IC50 [1] | Ki [1] | IC50 [2] | Ki [2] | IC50 [3] | IC50 (D(4) dopamine receptor) | IC50 [4] | Ki [4] | IC50 [5] | IC50 [6]

CC(C)(Oc1ccc(Cl)cc1)C(=O)O [CLOFIBRIC ACID]
Not Active: IC50 [1] | Ki [1] | IC50 [2] | Ki [2] | IC50 [3] | IC50 (D(4) dopamine receptor) | IC50 [4] | Ki [4] | IC50 [5] | IC50 [6]

Clc1cccc(Cl)c1NC1=NCCN1 [CLONIDINE]
Not Active: IC50 [1] | Ki [1] | IC50 [2] | Ki [2] | IC50 [3] | IC50 (D(4) dopamine receptor) | IC50 [4] | Ki [4] | IC50 [5] | IC50 [6] | IC50 (Cytochrome P450 2C19) | Ki (Cytochrome P450 2C19)

CNCCCN1c2ccccc2CCc2ccccc21 [DESIPRAMINE]
Not Active: IC50 [1] | Ki [1] | IC50 [2] | Ki [2] | IC50 [3] | IC50 (D(4) dopamine receptor) | IC50 [4] | Ki [4] | IC50 [5] | IC50 [6] | IC50 (Cytochrome P450 2C19) | Ki (Cytochrome P450 2C19)

C[C@]12CC[C@@H]3c4ccc(O)cc4CC[C@H]3[C@@H]1CCC2=O [ESTRONE]
Not Active: IC50 [1] | Ki [1] | IC50 [2] | Ki [2] | IC50 [3] | IC50 (D(4) dopamine receptor) | IC50 [4] | Ki [4] | IC50 [5] | IC50 [6]

N=C(N)NCCN1CCCCCCC1 [GUANETHIDINE]
Not Active: IC50 [1] | Ki [1] | IC50 [2] | Ki [2] | IC50 [3] | IC50 (D(4) dopamine receptor) | IC50 [4] | Ki [4] | IC50 [5] | IC50 [6]
